# Test results reported in patent US11560352B2, “P62-ZZ small molecule modulators” (University of Pittsburgh—Of the Commonwealth System of …, priority 2015, dated 2023).
# Where a name gives a salt, the structure may show the parent alone.
# What was measured:
# [1] = tested on: MM1S; test: inhibition of multiple myeloma cell growth, MM1S cells; type: cell-based; details: Homo sapiens, MM1.S
# Text: (§1) FIG. 2 is a schematic showing in vitro biological assays to validate screened compounds for multiple myeloma cells growth via inhibition of p62-zz domain and PKCζ phosphorylation.
# [2] = tested on: RPMI8266; test: inhibition of multiple myeloma cell growth, RPMI8266 cells; type: cell-based; details: Homo sapiens
# Text: as §1
# [3] = tested on: U266; test: inhibition of multiple myeloma cell growth, U266 cells; type: cell-based; details: Homo sapiens, U-266
# Text: as §1
# [4] = tested on: RPMI-8226 human multiple myeloma xenograft; test: subcutaneous RPMI-8226 human multiple myeloma xenograft model: efficacy and tolerability; type: in vivo
# Protocol: The therapeutic efficacy and tolerability of compound XIELP1-106 (also referred to as 10b) was evaluated in the treatment of subcutaneous RPMI-8226 human multiple myeloma xenograft model. The tumor volumes in the two groups at different time points are shown FIG. 3. The mean tumor volume of the XIELP1-106 vehicle control group reached 1,452 mm3 on day 39 after tumor implantation. The treatment of XIELP1-106 (60 mg/kg, ip, q3d×4 wks) produced a strong antitumor activity with T/C value of 23% (p=0.001).
# The median survival time (MST) of the vehicle treated mice was 42 days (FIG. 4).
Structure (SMILES),IC50 [1],IC50 [2],IC50 [3],"T/C value (antitumor activity) ([4]; 60 mg/kg, ip, q3d×4 wks, tumor volume vs vehicle control, day 39 after tumor implantation, p=0.001)","body weight loss ([4]; mice, 60 mg/kg ip q3d, after 3 doses, tolerability developed afterwards)","other gross clinical abnormality ([4]; mice, 60 mg/kg ip q3d×4 wks)"
"Fc1ccc(COc2ccc(CNC3CCCCC3)cc2OCc2ccc(F)cc2)cc1 [XIELP1-12b, N-(3,4-bis((4-fluorobenzyl)oxy)benzyl)cyclohexanamine]",1.77 µM,1.18 µM,–,–,–,–
"Cc1ccc(COc2ccc(CNCCO)cc2OCc2ccc(C)cc2)cc1 [XIELP1-24b, 2-((3,4-bis((4-methylbenzyl)oxy)benzyl)amino)ethan-1-ol]",2.56 µM,0.63 µM,1.21 µM,–,–,–
Cc1ccc(COc2ccc(CNCC3CCCCC3)cc2OCc2ccc(C)cc2)cc1 [XIELP1-25b],1.51 µM,0.92 µM,1.26 µM,–,–,–
"Cc1ccc(COc2ccc(CNC3CCCCC3)cc2OCc2ccc(C)cc2)cc1 [XIELP1-51, N-(3,4-bis((4-methylbenzyl)oxy)benzyl)cyclohexanamine]",5.36 µM,1.83 µM,–,–,–,–
"Fc1ccc(COc2ccc(CNCC3CCCCC3)cc2OCc2ccc(F)cc2)cc1 [XIELP1-106, N-(3,4-bis((4-fluorobenzyl)oxy)benzyl)-1-cyclohexylmethanamine Hydrochloride]",2.46 µM,0.72 µM,–,23%,11.2%,No other gross clinical abnormality was observed

# Continued, in another order:
IC50 [1],IC50 [2],IC50 [3],Structure (SMILES),"T/C value (antitumor activity) ([4]; 60 mg/kg, ip, q3d×4 wks, tumor volume vs vehicle control, day 39 after tumor implantation, p=0.001)","body weight loss ([4]; mice, 60 mg/kg ip q3d, after 3 doses, tolerability developed afterwards)","other gross clinical abnormality ([4]; mice, 60 mg/kg ip q3d×4 wks)"
0.84 µM,0.94 µM,–,"Fc1ccc(COc2ccc(CNCC3CCCCC3)cc2OCc2ccc(F)cc2F)c(F)c1 [XIELP1-17b, N-(3,4-bis((2,4-difluorobenzyl)oxy)benzyl)-1-cyclohexylmethanamine]",–,–,–
2.53 µM,1.13 µM,–,"Fc1ccc(COc2ccc(CNC3CCCCC3)cc2OCc2ccc(F)cc2F)c(F)c1 [XIELP1-20a, N-(3,4-bis((2,4-difluorobenzyl)oxy)benzyl)cyclohexanamine]",–,–,–
2.5 µM,1.4 µM,–,"Fc1ccc(COc2cc(CNCC3CCCCC3)cc(OCc3ccc(F)cc3F)c2)c(F)c1 [XIELP1-58, N-(3,5-bis((2,4-difluorobenzyl)oxy)benzyl)-1-cyclohexylmethanamine]",–,–,–
2.51 µM,1.33 µM,–,"Fc1ccc(COc2cc(CNC3CCCCC3)cc(OCc3ccc(F)cc3F)c2)c(F)c1 [XIELP1-60, N-(3,5-bis((2,4-difluorobenzyl)oxy)benzyl)cyclohexanamine]",–,–,–
